Tests used:
[1] = system: macrophage PLD; format: cell-based, human
[2] = system: macrophages; assay: ROI generation by dichlorofluorescein (DCF) flow cytometry; format: cell-based, human
Method: Because dichloro fluorescein (DCF) is a fluorochrome obtained from reaction of non fluorescent 2, 7-dichloro fluorescein diacetate (DCFH) with various oxidants, analysis thereof is used to detect cellular oxidative stress and amount of oxygen reactive intermediates (ROI) produced by phagocytic cells. In the used model, this analysis is employed in order to monitor the D-erythro-sphingosine 1-phosphate (S1P) modulated ROI production from macrophages. Macrophages were incubated for 90 minutes with sphingosine 1-phosphate at 0.5 μM, 5 μM, 10 μM and 50 μM concentrations. After the incubation 100 μl of 0.4 μM DCFH (Calbiochem) were added and incubated for at least 30 minutes. Finally, cells were washed with PBS and analysed using FACScan flow cytometer from Becton Dickinson.

[3] = system: Mycobacterium tuberculosis; assay: Colony forming units of H37Rv M. tuberculosis in differentiated THP-1 cells; format: cell-based; details: THP-1 macrophage cell line, MOI 1:10 or 1:1, 5 μM, up to 5 or 7 days
Method: Human monocytic THP-1 leukemia line cells were used in this example as a model for macrophage response. In order to obtain macrophage phenotype, 5×10^5/ml THP-1 cells were induced to differentiate by 48 hours incubation in the presence of 20 ng/ml Phorbol Myristate Acetate (PMA). Differentiated THP-1 cells (dTHP-1) were then centrifuged three times and suspended in complete medium [RPMI 1640 (Gibco BRL) supplemented with 10% fetal bovine serum, 5 mM L-glutamine) (Invitrogen), 1 mM sodium pyruvate (Gibco BRL) and non-essential amino acids (Euroclone), 5 μg/ml gentamicin (Invitrogen)]. dTHP-1 were then infected for 3 hours with H37Rv M. tuberculosis at the multiplicity of infection of 1:10 (FIG. 8A) or 1:1 (FIG. 8B) bacterium/cell. After infection cells were washed three times with RPMI 1640 and incubated in complete medium for further 1, 2 and 5 days (FIG. 8A) or 1 and 7 days (FIG. 8B) in the presence or absence of sphingosine 1-phosphate used at the concentration of 5 μM. […]

[4] = system: H37Rv MTB; assay: Mycobacterial viability (CFU) in MTB infected monocyte derived macrophages; format: cell-based, Mycobacterium tuberculosis; details: MTB MOI 1:1, S1P 5 μM, 5 days after the infection, statistically significant
Method: In order to evaluate the bacterial viability, monocyte derived macrophages were infected for 3 hours with MTB at 1:1 macrophage/bacterium infection ratio and then treated with S1P (5 μM). At time 0(just after infection) and after 2 and 5 days the plates containing infected cellular cultures were centrifuged at 2000 RPM for 10 minutes and the supernatant was discarded. Then 1 ml PBS and 0.1% saponin were added to each well and the contents were incubated for 20 minute at 37° C. After incubation cellular lysates were sonicated for 20 seconds in such a way to break any possible bacterial aggregates. Lysates thus obtained were diluted in sterile saline 1:100, 1:1000, 1:10000 with addition of 0.01% Tween 80 and plated on Middlebrook 7H10 (Difco). Plates were incubated at 37° C. for about one month and colonies enumerated.
Based on the observations about the possible antimicrobial role of PLD and S1P during Mycobacterium tuberculosis infection it was investigated whether S1P macrophage exogenous stimulation and PLD activation were associated to a reduction of mycobacterial viability. To that object, monocytes were infected for three hours with H37Rv MTB at a multiplicity of infection of 1 bacillus for 1 cell. […]

[5] = system: Mycobacterium tuberculosis; assay: Dose dependent effect of S1P on MTB replication in macrophages from peripheral blood monocytes; format: cell-based; details: human monocyte-derived macrophages, 4 donors, 0.5, 5 or 50 μM, fifth day after infection
Method: Peripheral blood mononuclear cells were isolated from human Buffy coat blood preparations by gradient centrifugation and suspended at 5×10^6/ml in complete medium [RPMI 1640 (Gibco BRL) supplemented with 10% fetal bovine serum (Gibco BRL), 5 mM L-glutamine and Gentamicine (5 μg/ml)]. Monocytes were then separated by adherence for 1 hour in polystyrene 75 cm^2 flasks (Corning, Cambridge, Mass.). After incubation, non-adherent cells were removed by three washes with warm RPMI 1640. […] Finally, adherent monocytes were collected after 15 minute incubation at 4° C. in the presence of 5 mM EDTA in PBS. Cells then were washed, incubated in complete medium for 5-7 days in 24 well plate at the concentration of 10^6 cells/ml to get monocyte-derived macrophages. […]
Sphingosine 1-phosphate (S-1P), used at the concentrations of 0.5, 5 or 50 μM inhibits intracellular replication of Mycobacterium tuberculosis in human monocyte-derived macrophages (MDM) from peripheral blood of healthy donors. Results are obtained from experiments performed on MDM from 4 different donors and are expressed as the means of the percentages of mycobacterial killing±standard error at the fifth day after infection. Percentage of mycobacterial killing is calculated by using the following formula: [1−(CFU from infected and S-1P stimulated MDM/CFU from infected unstimulated MDM)]×100.

CCCCCCCCCCCCC/C=C/[C@@H](O)[C@@H](N)COP(=O)(O)O [S1P, D-erythro-sphingosine 1-phosphate]
Pet-OH production, index of PLD activity, versus MTB infected non S1P treated macrophages [1]: higher | S1P concentration giving maximum activation of macrophage PLD [1]: 5 µM | time of maximum activation of macrophage PLD [1]: 30 min | ROI production by macrophages over the time ([2]; 5 μM S1P, DCF positive response after 30 and 90 minutes): increases progressively over the time | S1P dose giving maximum DCF positive response ([2]; scalar S1P doses, % DCF positive cells): 5-10 μm | intracellular replication of Mycobacterium tuberculosis (CFU) [3]: inhibits | CFU number after S1P treatment [4]: reduced | intracellular replication of Mycobacterium tuberculosis (percentage of mycobacterial killing) [5]: inhibits
